In patent US10017580B2, “Humanized anti-Tn-MUC1 antibodies and their conjugates” (ADC THERAPEUTICS S.A., priority 2014, dated 2018):

Experiments:
Tn-MUC1 (16TR-MUC1-Tn) = experiment: Tn-MUC1 binding ELISA (protocol 4); design: species or system human; conditions: ELISA on 16TR-MUC1-Tn coated plate
[1] = tested on: ZR-75-1 cell line, which expresses Tn-MUC1; experiment: ZR-75-1 cell binding assay by flow cytometry (protocol 6); conditions: flow cytometry, live cells
Experimental: Protocol 6: ZR-75-1 Cell Binding Assay by Flow Cytometry Materials • Wash solution: PBS 0.1% (w/v) sodium azide • Binding buffer: PBS, 10% normal goat serum, 0.1% (w/v) sodium azide) • 96 well U-well microplate Protocol
Exponentially growing cells are suspended by incubation with cell dissociation buffer enzyme-free, Hanks-based (Gibco 13150-016) following the manufacturer's instructions. A cell count/viability is done on a dilution of 10 ul cells+Trypan Blue, 10 ul, with a haemocytomer. The suspension is centrifuged and the cell pellet re-suspended in binding buffer at 3×10^6 per ml. If significant levels of aggregates are present in the cell count, the suspension is filtered to remove aggregates. The cell suspension is dispensed (50 ul/well) in 96 well U-bottom plates and cooled on ice for 10 minutes. Primary antibody (50 ul/well) diluted in binding buffer (typically 1 ug per ml or less) is added to each well and incubated at 4° C. for 1 hour. […] Cells are then re-suspended in PBS if reading immediately or fixed in 100 ul of paraformaldehyde (2% (w/v) in PBS) and analysed with by flow cytometer (Accuri C6), gating on live cells which have a lower Fixable Viability Dye MFI compared to dead cells.
IgG binding potency to Tn-MUC1 was measured as per protocol 4 and binding to the ZR-75-1 cell line, which expresses Tn-MUC1, was measured as per protocol 6.

[2] = Thermal denaturation assay (protocol 5); type: physicochemical; conditions: 50% inactivation temperature, 10 minutes heating, read by antigen-binding ELISA
[3] = tested on: K562 human chronic myeloid leukaemia cells; experiment: K562 assay (MTT cytotoxicity of released compounds); type: cell-based; conditions: drug incubation 1 hour or 96 hours (not specified which)
Experimental: K562 human chronic myeloid leukaemia cells were maintained in RPM1 1640 medium supplemented with 10% fetal calf serum and 2 mM glutamine at 37° C. in a humidified atmosphere containing 5% CO2 and were incubated with a specified dose of drug for 1 hour or 96 hours at 37° C. in the dark. The incubation was terminated by centrifugation (5 min, 300 g) and the cells were washed once with drug-free medium. Following the appropriate drug treatment, the cells were transferred to 96-well microtiter plates (10^4 cells per well, 8 wells per sample). Plates were then kept in the dark at 37° C. in a humidified atmosphere containing 5% CO2. The assay is based on the ability of viable cells to reduce a yellow soluble tetrazolium salt, 3-(4,5-dimethylthiazol-2-yl)-2,5-diphenyl-2H-tetrazolium bromide (MTT, Aldrich-Sigma), to an insoluble purple formazan precipitate. Following incubation of the plates for 4 days (to allow control cells to increase in number by approximately 10 fold), 20 μL of MTT solution (5 mg/mL in phosphate-buffered saline) was added to each well and the plates further incubated for 5 h. The plates were then centrifuged for 5 min at 300 g and the bulk of the medium pipetted from the cell pellet leaving 10-20 μL per well. […] The optical density was then read at a wavelength of 550 nm on a Titertek Multiscan ELISA plate reader, and a dose-response curve was constructed. […]

Chain of Tn-MUC1 (16TR-MUC1-Tn) (P15941 141-460 limits assumed): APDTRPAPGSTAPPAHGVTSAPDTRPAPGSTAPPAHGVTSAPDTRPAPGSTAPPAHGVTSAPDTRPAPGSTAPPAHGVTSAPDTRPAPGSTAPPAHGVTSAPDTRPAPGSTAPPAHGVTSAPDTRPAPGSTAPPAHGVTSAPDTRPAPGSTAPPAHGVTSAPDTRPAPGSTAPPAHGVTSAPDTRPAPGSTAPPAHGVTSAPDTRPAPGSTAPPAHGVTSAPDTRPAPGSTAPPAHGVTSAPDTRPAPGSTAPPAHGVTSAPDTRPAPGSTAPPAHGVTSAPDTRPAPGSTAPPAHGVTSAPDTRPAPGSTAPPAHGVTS

**Q.** With “Mouse 5E5: anti-Tn MUC 1 antibody comprising a VH domain according to SEQ ID NO. 1 and a VL domain according to SEQ ID NO. 30 [reference compound]” as the compound, how does the “Tn-MUC1 binding EC50” value (Tn-MUC1 (16TR-MUC1-Tn)) read?
**A.** 0.0311 µg/mL

**Q.** And the “ZR-75-1 cell binding EC50” value [1]?
**A.** 0.02834 µg/mL

**Q.** What about the Tm [2] of the same compound?
**A.** 69.97 °C

**Q.** For `COc1cc2c(cc1OCCCOc1cc3c(cc1OC)C(=O)N1C=C(C)C[C@H]1C=N3)N=C[C@@H]1CC(C)=CN1C2=O` [Compound RelE], which IC50 [3] is on record?
**A.** 0.425 nM
